Test results published in the OligoGym collection.
Oligonucleotides are given in HELM: sugar(base)linkage, 5' to 3'; d 2'-deoxyribose, r ribose, m 2'-O-methylribose, p phosphate. ss, as = sense and antisense strand

molecular target: UBE2D3; assay: reporter assay of Huesken 2005; details: siRNA
Further: test concentration or dose not given here.

Substance	normalised inhibition (eCFP-eYFP dual reporter)
RNA1{r(G)p.r(C)p.r(A)p.r(A)p.r(G)p.r(C)p.r(C)p.r(A)p.r(C)p.r(A)p.r(A)p.r(U)p.r(U)p.r(A)p.r(U)p.r(G)p.r(G)p.r(G)p.r(A)p.d(T)p.d(T)}|RNA2{r(U)p.r(C)p.r(C)p.r(C)p.r(A)p.r(U)p.r(A)p.r(A)p.r(U)p.r(U)p.r(G)p.r(U)p.r(G)p.r(G)p.r(C)p.r(U)p.r(U)p.r(G)p.r(C)p.d(C)p.d(A)}$$$RNA1{StrandType:ss}|RNA2{StrandType:as}$	75.8%
RNA1{r(G)p.r(C)p.r(A)p.r(C)p.r(A)p.r(A)p.r(U)p.r(G)p.r(U)p.r(U)p.r(C)p.r(U)p.r(G)p.r(C)p.r(A)p.r(G)p.r(G)p.r(U)p.r(C)p.d(T)p.d(T)}|RNA2{r(G)p.r(A)p.r(C)p.r(C)p.r(U)p.r(G)p.r(C)p.r(A)p.r(G)p.r(A)p.r(A)p.r(C)p.r(A)p.r(U)p.r(U)p.r(G)p.r(U)p.r(G)p.r(C)p.d(T)p.d(G)}$$$RNA1{StrandType:ss}|RNA2{StrandType:as}$	100%
RNA1{r(G)p.r(G)p.r(C)p.r(A)p.r(A)p.r(G)p.r(C)p.r(C)p.r(A)p.r(C)p.r(A)p.r(A)p.r(U)p.r(U)p.r(A)p.r(U)p.r(G)p.r(G)p.r(G)p.d(T)p.d(T)}|RNA2{r(C)p.r(C)p.r(C)p.r(A)p.r(U)p.r(A)p.r(A)p.r(U)p.r(U)p.r(G)p.r(U)p.r(G)p.r(G)p.r(C)p.r(U)p.r(U)p.r(G)p.r(C)p.r(C)p.d(A)p.d(A)}$$$RNA1{StrandType:ss}|RNA2{StrandType:as}$	60.2%
RNA1{r(G)p.r(G)p.r(G)p.r(A)p.r(U)p.r(G)p.r(A)p.r(U)p.r(A)p.r(U)p.r(G)p.r(U)p.r(U)p.r(U)p.r(C)p.r(A)p.r(U)p.r(U)p.r(G)p.d(T)p.d(T)}|RNA2{r(C)p.r(A)p.r(A)p.r(U)p.r(G)p.r(A)p.r(A)p.r(A)p.r(C)p.r(A)p.r(U)p.r(A)p.r(U)p.r(C)p.r(A)p.r(U)p.r(C)p.r(C)p.r(C)p.d(C)p.d(A)}$$$RNA1{StrandType:ss}|RNA2{StrandType:as}$	95%
RNA1{r(G)p.r(G)p.r(U)p.r(C)p.r(C)p.r(A)p.r(G)p.r(U)p.r(U)p.r(G)p.r(G)p.r(G)p.r(G)p.r(A)p.r(U)p.r(G)p.r(A)p.r(U)p.r(A)p.d(T)p.d(T)}|RNA2{r(U)p.r(A)p.r(U)p.r(C)p.r(A)p.r(U)p.r(C)p.r(C)p.r(C)p.r(C)p.r(A)p.r(A)p.r(C)p.r(U)p.r(G)p.r(G)p.r(A)p.r(C)p.r(C)p.d(T)p.d(G)}$$$RNA1{StrandType:ss}|RNA2{StrandType:as}$	93.7%
RNA1{r(G)p.r(G)p.r(U)p.r(C)p.r(G)p.r(C)p.r(C)p.r(U)p.r(G)p.r(C)p.r(U)p.r(U)p.r(U)p.r(A)p.r(A)p.r(C)p.r(A)p.r(A)p.r(U)p.d(T)p.d(T)}|RNA2{r(A)p.r(U)p.r(U)p.r(G)p.r(U)p.r(U)p.r(A)p.r(A)p.r(A)p.r(G)p.r(C)p.r(A)p.r(G)p.r(G)p.r(C)p.r(G)p.r(A)p.r(C)p.r(C)p.d(A)p.d(C)}$$$RNA1{StrandType:ss}|RNA2{StrandType:as}$	84.5%
RNA1{r(G)p.r(U)p.r(C)p.r(C)p.r(A)p.r(G)p.r(U)p.r(U)p.r(G)p.r(G)p.r(G)p.r(G)p.r(A)p.r(U)p.r(G)p.r(A)p.r(U)p.r(A)p.r(U)p.d(T)p.d(T)}|RNA2{r(A)p.r(U)p.r(A)p.r(U)p.r(C)p.r(A)p.r(U)p.r(C)p.r(C)p.r(C)p.r(C)p.r(A)p.r(A)p.r(C)p.r(U)p.r(G)p.r(G)p.r(A)p.r(C)p.d(C)p.d(T)}$$$RNA1{StrandType:ss}|RNA2{StrandType:as}$	88.3%
RNA1{r(G)p.r(U)p.r(G)p.r(G)p.r(U)p.r(C)p.r(G)p.r(C)p.r(C)p.r(U)p.r(G)p.r(C)p.r(U)p.r(U)p.r(U)p.r(A)p.r(A)p.r(C)p.r(A)p.d(T)p.d(T)}|RNA2{r(U)p.r(G)p.r(U)p.r(U)p.r(A)p.r(A)p.r(A)p.r(G)p.r(C)p.r(A)p.r(G)p.r(G)p.r(C)p.r(G)p.r(A)p.r(C)p.r(C)p.r(A)p.r(C)p.d(T)p.d(G)}$$$RNA1{StrandType:ss}|RNA2{StrandType:as}$	100%
RNA1{r(G)p.r(U)p.r(U)p.r(U)p.r(C)p.r(A)p.r(U)p.r(U)p.r(G)p.r(G)p.r(C)p.r(A)p.r(A)p.r(G)p.r(C)p.r(C)p.r(A)p.r(C)p.r(A)p.d(T)p.d(T)}|RNA2{r(U)p.r(G)p.r(U)p.r(G)p.r(G)p.r(C)p.r(U)p.r(U)p.r(G)p.r(C)p.r(C)p.r(A)p.r(A)p.r(U)p.r(G)p.r(A)p.r(A)p.r(A)p.r(C)p.d(A)p.d(T)}$$$RNA1{StrandType:ss}|RNA2{StrandType:as}$	94.9%
RNA1{r(U)p.r(A)p.r(A)p.r(G)p.r(A)p.r(U)p.r(C)p.r(A)p.r(C)p.r(A)p.r(G)p.r(U)p.r(G)p.r(G)p.r(U)p.r(C)p.r(G)p.r(C)p.r(C)p.d(T)p.d(T)}|RNA2{r(G)p.r(G)p.r(C)p.r(G)p.r(A)p.r(C)p.r(C)p.r(A)p.r(C)p.r(U)p.r(G)p.r(U)p.r(G)p.r(A)p.r(U)p.r(C)p.r(U)p.r(U)p.r(A)p.d(G)p.d(A)}$$$RNA1{StrandType:ss}|RNA2{StrandType:as}$	55.6%
RNA1{r(U)p.r(A)p.r(A)p.r(U)p.r(G)p.r(A)p.r(C)p.r(A)p.r(G)p.r(C)p.r(C)p.r(C)p.r(A)p.r(U)p.r(A)p.r(U)p.r(C)p.r(A)p.r(A)p.d(T)p.d(T)}|RNA2{r(U)p.r(U)p.r(G)p.r(A)p.r(U)p.r(A)p.r(U)p.r(G)p.r(G)p.r(G)p.r(C)p.r(U)p.r(G)p.r(U)p.r(C)p.r(A)p.r(U)p.r(U)p.r(A)p.d(G)p.d(G)}$$$RNA1{StrandType:ss}|RNA2{StrandType:as}$	97.7%
RNA1{r(U)p.r(A)p.r(G)p.r(U)p.r(G)p.r(C)p.r(C)p.r(A)p.r(G)p.r(A)p.r(G)p.r(A)p.r(U)p.r(U)p.r(G)p.r(C)p.r(A)p.r(C)p.r(G)p.d(T)p.d(T)}|RNA2{r(C)p.r(G)p.r(U)p.r(G)p.r(C)p.r(A)p.r(A)p.r(U)p.r(C)p.r(U)p.r(C)p.r(U)p.r(G)p.r(G)p.r(C)p.r(A)p.r(C)p.r(U)p.r(A)p.d(G)p.d(G)}$$$RNA1{StrandType:ss}|RNA2{StrandType:as}$	62.4%
RNA1{r(U)p.r(A)p.r(U)p.r(C)p.r(A)p.r(A)p.r(G)p.r(G)p.r(C)p.r(G)p.r(G)p.r(U)p.r(G)p.r(U)p.r(A)p.r(U)p.r(U)p.r(C)p.r(U)p.d(T)p.d(T)}|RNA2{r(A)p.r(G)p.r(A)p.r(A)p.r(U)p.r(A)p.r(C)p.r(A)p.r(C)p.r(C)p.r(G)p.r(C)p.r(C)p.r(U)p.r(U)p.r(G)p.r(A)p.r(U)p.r(A)p.d(T)p.d(G)}$$$RNA1{StrandType:ss}|RNA2{StrandType:as}$	99.5%
RNA1{r(U)p.r(A)p.r(U)p.r(G)p.r(G)p.r(G)p.r(A)p.r(C)p.r(C)p.r(U)p.r(A)p.r(A)p.r(U)p.r(G)p.r(A)p.r(C)p.r(A)p.r(G)p.r(C)p.d(T)p.d(T)}|RNA2{r(G)p.r(C)p.r(U)p.r(G)p.r(U)p.r(C)p.r(A)p.r(U)p.r(U)p.r(A)p.r(G)p.r(G)p.r(U)p.r(C)p.r(C)p.r(C)p.r(A)p.r(U)p.r(A)p.d(A)p.d(T)}$$$RNA1{StrandType:ss}|RNA2{StrandType:as}$	44.4%
RNA1{r(U)p.r(A)p.r(U)p.r(G)p.r(U)p.r(U)p.r(U)p.r(C)p.r(A)p.r(U)p.r(U)p.r(G)p.r(G)p.r(C)p.r(A)p.r(A)p.r(G)p.r(C)p.r(C)p.d(T)p.d(T)}|RNA2{r(G)p.r(G)p.r(C)p.r(U)p.r(U)p.r(G)p.r(C)p.r(C)p.r(A)p.r(A)p.r(U)p.r(G)p.r(A)p.r(A)p.r(A)p.r(C)p.r(A)p.r(U)p.r(A)p.d(T)p.d(C)}$$$RNA1{StrandType:ss}|RNA2{StrandType:as}$	44.7%
RNA1{r(U)p.r(C)p.r(A)p.r(C)p.r(U)p.r(G)p.r(C)p.r(U)p.r(A)p.r(U)p.r(G)p.r(U)p.r(G)p.r(A)p.r(U)p.r(C)p.r(C)p.r(A)p.r(A)p.d(T)p.d(T)}|RNA2{r(U)p.r(U)p.r(G)p.r(G)p.r(A)p.r(U)p.r(C)p.r(A)p.r(C)p.r(A)p.r(U)p.r(A)p.r(G)p.r(C)p.r(A)p.r(G)p.r(U)p.r(G)p.r(A)p.d(A)p.d(C)}$$$RNA1{StrandType:ss}|RNA2{StrandType:as}$	95.2%
RNA1{r(U)p.r(C)p.r(C)p.r(A)p.r(U)p.r(U)p.r(U)p.r(G)p.r(U)p.r(U)p.r(C)p.r(A)p.r(C)p.r(U)p.r(G)p.r(C)p.r(U)p.r(A)p.r(U)p.d(T)p.d(T)}|RNA2{r(A)p.r(U)p.r(A)p.r(G)p.r(C)p.r(A)p.r(G)p.r(U)p.r(G)p.r(A)p.r(A)p.r(C)p.r(A)p.r(A)p.r(A)p.r(U)p.r(G)p.r(G)p.r(A)p.d(T)p.d(A)}$$$RNA1{StrandType:ss}|RNA2{StrandType:as}$	98.4%
RNA1{r(U)p.r(C)p.r(U)p.r(A)p.r(A)p.r(A)p.r(G)p.r(U)p.r(U)p.r(C)p.r(U)p.r(U)p.r(U)p.r(U)p.r(A)p.r(U)p.r(C)p.r(C)p.r(A)p.d(T)p.d(T)}|RNA2{r(U)p.r(G)p.r(G)p.r(A)p.r(U)p.r(A)p.r(A)p.r(A)p.r(A)p.r(G)p.r(A)p.r(A)p.r(C)p.r(U)p.r(U)p.r(U)p.r(A)p.r(G)p.r(A)p.d(A)p.d(A)}$$$RNA1{StrandType:ss}|RNA2{StrandType:as}$	64.2%
RNA1{r(U)p.r(C)p.r(U)p.r(A)p.r(A)p.r(G)p.r(A)p.r(U)p.r(C)p.r(A)p.r(C)p.r(A)p.r(G)p.r(U)p.r(G)p.r(G)p.r(U)p.r(C)p.r(G)p.d(T)p.d(T)}|RNA2{r(C)p.r(G)p.r(A)p.r(C)p.r(C)p.r(A)p.r(C)p.r(U)p.r(G)p.r(U)p.r(G)p.r(A)p.r(U)p.r(C)p.r(U)p.r(U)p.r(A)p.r(G)p.r(A)p.d(A)p.d(T)}$$$RNA1{StrandType:ss}|RNA2{StrandType:as}$	43.3%
RNA1{r(U)p.r(C)p.r(U)p.r(C)p.r(G)p.r(A)p.r(U)p.r(A)p.r(U)p.r(U)p.r(C)p.r(U)p.r(A)p.r(A)p.r(G)p.r(A)p.r(U)p.r(C)p.r(A)p.d(T)p.d(T)}|RNA2{r(U)p.r(G)p.r(A)p.r(U)p.r(C)p.r(U)p.r(U)p.r(A)p.r(G)p.r(A)p.r(A)p.r(U)p.r(A)p.r(U)p.r(C)p.r(G)p.r(A)p.r(G)p.r(A)p.d(C)p.d(A)}$$$RNA1{StrandType:ss}|RNA2{StrandType:as}$	98.1%
